From ChEMBL document CHEMBL1155022, “Aerucyclamides A and B: isolation and synthesis of toxic ribosomal heterocyclic peptides from the cyanobacterium Microcystis aeruginosa PCC 7806” (J Nat Prod, 2008) come the findings set out here.

The series in a line: Acute grazer toxicity against Thamnocephalus platyurus after 24 hrs. Format: organism-based. The settings on record: in vivo.

Usually LC50 stands for the concentration that kills 50% of the test population. Read a low LC50 as a more lethal substance. `CC[C@H](C)[C@@H]1NC(=O)c2csc(n2)[C@@H]([C@@H](C)CC)NC(=O)c2csc(n2)CNC(=O)[C@H]2N=C1O[C@@H]2C` [AERUCYCLAMIDE B] registered an LC50 at 24 h of 33.8 µM.

In turn, `CC[C@H](C)[C@@H]1NC(=O)[C@H]2CSC(=N2)[C@@H]([C@@H](C)CC)NC(=O)c2csc(n2)CNC(=O)[C@H]2N=C1O[C@@H]2C` [AERUCYCLAMIDE A] displayed an LC50 at 24 h of 30.5 µM.
